Data reported in US9969742B2, “Imidazotriazinone compounds” (Ironwood Pharmaceuticals, Inc., priority 2012, dated 2018).
Like-named read-outs stand apart in the source and are kept apart here.

Tests used:
Format in all cases: biochemical
PDE1B = target: T1, PDE1B (Homo sapiens, UniProt Q01064); experiment: Phosphodiesterase enzyme screening assay, PDE1B; settings: ratio of IC50 values, value greater than 1 indicates greater selectivity for PDE9A2
T1 construct: purchased Reaction Biology Corporation, Malvern, Pa
T1 sequence (Q01064 whole entry): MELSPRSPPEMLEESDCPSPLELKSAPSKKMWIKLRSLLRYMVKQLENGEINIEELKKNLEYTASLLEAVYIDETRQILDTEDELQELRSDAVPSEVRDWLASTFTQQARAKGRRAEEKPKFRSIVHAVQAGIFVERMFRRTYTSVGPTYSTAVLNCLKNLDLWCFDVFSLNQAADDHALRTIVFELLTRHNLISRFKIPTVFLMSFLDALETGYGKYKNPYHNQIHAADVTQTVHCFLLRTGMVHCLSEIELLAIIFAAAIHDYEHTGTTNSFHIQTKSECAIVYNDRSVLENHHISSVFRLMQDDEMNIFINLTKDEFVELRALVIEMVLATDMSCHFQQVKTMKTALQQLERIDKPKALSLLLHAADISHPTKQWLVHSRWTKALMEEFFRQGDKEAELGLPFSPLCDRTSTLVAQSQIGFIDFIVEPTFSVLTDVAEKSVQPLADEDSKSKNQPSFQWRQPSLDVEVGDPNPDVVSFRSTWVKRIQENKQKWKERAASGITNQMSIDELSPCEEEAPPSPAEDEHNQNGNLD
How it was run: (§1)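 Enzyme activity is measured as conversion of fluorescent cGMP (4.0 μM) to 5′-GMP after 1 h at R.T. in pH 7.5 HEPES/MgCl2/DTT buffer. Product is separated from substrate by microfluidic mobility shift, and inhibition is derived by comparison with control wells.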

PDE9A2 = target: T2, PDE9A2 (Homo sapiens, UniProt O76083); experiment: Phosphodiesterase enzyme screening assay, PDE9A2; settings: read-out: Band (PDE9A2 IC50)
T2 construct: purchased Reaction Biology Corporation, Malvern, Pa
T2 sequence (O76083 1-533 isoform O76083-2): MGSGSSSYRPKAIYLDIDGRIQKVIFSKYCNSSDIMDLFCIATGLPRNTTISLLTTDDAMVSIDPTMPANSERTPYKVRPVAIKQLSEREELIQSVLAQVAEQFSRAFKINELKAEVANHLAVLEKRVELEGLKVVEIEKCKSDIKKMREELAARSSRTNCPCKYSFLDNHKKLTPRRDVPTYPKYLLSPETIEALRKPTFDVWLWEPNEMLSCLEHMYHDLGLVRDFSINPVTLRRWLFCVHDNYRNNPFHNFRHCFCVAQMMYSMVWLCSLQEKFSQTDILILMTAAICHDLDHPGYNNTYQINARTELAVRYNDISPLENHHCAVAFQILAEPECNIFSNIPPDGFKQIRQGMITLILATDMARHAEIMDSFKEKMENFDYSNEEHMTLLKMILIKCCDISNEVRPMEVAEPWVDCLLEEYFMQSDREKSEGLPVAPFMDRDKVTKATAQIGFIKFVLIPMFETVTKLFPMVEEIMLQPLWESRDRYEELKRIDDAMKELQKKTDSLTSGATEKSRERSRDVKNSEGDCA
How it was run: as §1

PDE1A = target: T3, PDE1A (Homo sapiens, UniProt P54750); experiment: Phosphodiesterase enzyme screening assay, PDE1A; settings: ratio of IC50 values, value greater than 1 indicates greater selectivity for PDE9A2
T3 construct: purchased Reaction Biology Corporation, Malvern, Pa
T3 sequence (P54750 whole entry): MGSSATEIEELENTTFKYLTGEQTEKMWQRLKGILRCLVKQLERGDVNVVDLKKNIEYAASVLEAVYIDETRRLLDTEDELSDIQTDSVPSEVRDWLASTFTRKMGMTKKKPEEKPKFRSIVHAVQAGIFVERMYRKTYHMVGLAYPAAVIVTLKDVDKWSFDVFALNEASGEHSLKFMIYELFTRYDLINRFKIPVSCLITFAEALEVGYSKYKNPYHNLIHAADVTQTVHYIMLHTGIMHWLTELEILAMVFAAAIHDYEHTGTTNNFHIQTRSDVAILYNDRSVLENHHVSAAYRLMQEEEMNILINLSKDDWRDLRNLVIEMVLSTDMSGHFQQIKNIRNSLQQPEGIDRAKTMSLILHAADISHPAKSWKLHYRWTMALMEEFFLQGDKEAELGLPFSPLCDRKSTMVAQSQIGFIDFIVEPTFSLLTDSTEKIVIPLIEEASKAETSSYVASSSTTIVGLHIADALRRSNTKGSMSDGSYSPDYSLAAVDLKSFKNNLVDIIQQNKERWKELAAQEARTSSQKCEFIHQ
How it was run: as §1

[1] = Table 1, 10 concentrations, 4.0 μM cGMP substrate, 1 hour at R.T.

Row | SMILES | PDE1B selectivity (versus PDE9A2) (PDE1B; Table 1) | IC50 (PDE9A2; [1]) | PDE1A selectivity (versus PDE9A2) (PDE1A; Table 1) | PDE1B selectivity (versus PDE9A2) (PDE1B) | IC50 (PDE9A2) | PDE1A selectivity (versus PDE9A2) (PDE1A)
1 | CC1CN(Cc2ncc3ccccc3n2)CC1c1nn2c(C3CCOCC3)ncc2c(=O)[nH]1 (single isomer, unassigned; (-)) [(−)-2-((3,4-trans)-4-methyl-1-(quinazolin-2-ylmethyl)pyrroli] [(−)-2-((3,4-trans)-4-methyl-1-(quinazolin-2-ylmethyl)pyrrolidin-3-yl)-7-(tetrahydro-2H-pyran-4-yl)imidazo[5,1-f][1,2,4]triazin-4(3H)-one] | 2000 | < 1000 nM | 1213 | – | – | –
2 | CC1CN(C(=O)c2ncc3ccccc3n2)CC1c1nn2c(C3CCOCC3)ncc2c(=O)[nH]1 (single isomer, unassigned; (-)) [(−)-2-((3,4-trans)-4-methyl-1-(quinazoline-2-carbonyl)pyrrolidin-3-yl)-7-(tetrahydro-2H-pyran-4-yl)imidazo[5,1-f][1,2,4]triazin-4(3H)-one] | 50 | < 1000 nM | 32 | – | – | –
3 | CC1CN(Cc2ccc3ccccc3n2)CC1c1nn2c(C3CCOCC3)ncc2c(=O)[nH]1 (single isomer, unassigned; (-)) [(−)-2-((3,4-trans)-4-methyl-1-(quinolin-2-ylmethyl)pyrrolidi] [(−)-2-((3,4-trans)-4-methyl-1-(quinolin-2-ylmethyl)pyrrolidin-3-yl)-7-(tetrahydro-2H-pyran-4-yl)imidazo[5,1-f][1,2,4]triazin-4(3H)-one] | 48 | < 1000 nM | 56 | – | – | –
4 | CC1CN(Cc2ccc3cccnc3c2)CC1c1nn2c(C3CCOCC3)ncc2c(=O)[nH]1 (single isomer, unassigned; (-)) [(−)-2-((3,4-trans)-4-methyl-1-(quinolin-7-ylmethyl)pyrrolidin-3-yl)-7-(tetrahydro-2H-pyran-4-yl)imidazo[5,1-f][1,2,4]triazin-4(3H)-one] | 2610 | < 1000 nM | 334 | – | – | –
5 | CC1CN(C(=O)c2ccc3ccccc3n2)CC1c1nn2c(C3CCOCC3)ncc2c(=O)[nH]1 (single isomer, unassigned; (-)) [(−)-2-((3,4-trans)-4-methyl-1-(quinoline-2-carbonyl)pyrrolidin-3-yl)-7-(tetrahydro-2H-pyran-4-yl)imidazo[5,1-f][1,2,4]triazin-4(3H)-one] | 59 | < 1000 nM | 25 | – | – | –
6 | CC1CN(C(=O)c2cccnc2)CC1c1nn2c(C3CCOCC3)ncc2c(=O)[nH]1 (single isomer, unassigned; (-)) [(−)-2-((3,4-trans)-4-methyl-1-nicotinoylpyrrolidin-3-yl)-7-(tetrahydro-2H-pyran-4-yl)imidazo[5,1-f][1,2,4]triazin-4(3H)-one] | 50 | < 1000 nM | 36 | – | – | –
7 | CC1CN(C(=O)c2ccc(C#N)cc2)CC1c1nn2c(C3CCOCC3)ncc2c(=O)[nH]1 (single isomer, unassigned; (-)) [(−)-4-((3,4-trans)-3-methyl-4-(4-oxo-7-(tetrahydro-2H-pyran-4-yl)-3,4-dihydroimidazo[5,1-f][1,2,4]triazin-2-yl)pyrrolidine-1-carbonyl)benzonitrile] | 21 | < 1000 nM | 14 | – | – | –
8 | CC1CN(Cc2ccc(C#N)cc2)CC1c1nn2c(C3CCOCC3)ncc2c(=O)[nH]1 (single isomer, unassigned; (-)) [(−)-4-(((3,4-trans)-3-methyl-4-(4-oxo-7-(tetrahydro-2H-pyran-4-yl)-3,4-dihydroimidazo[5,1-f][1,2,4]triazin-2-yl)pyrrolidin-1-yl)methyl)benzonitrile] | 1445 | < 1000 nM | 640 | – | – | –
9 | CC1CN(CC2CCN(C(=O)OC(C)(C)C)CC2)CC1c1nn2c(C3CCOCC3)ncc2c(=O)[nH]1 (single isomer, unassigned; (-)) [(−)-tert-butyl (−)-4-(((3,4-trans)-3-methyl-4-(4-oxo-7-(tetrahydro-2H-pyran-4-yl)-3,4-dihydroimidazo[5,1-f][1,2,4]triazin-2-yl)pyrrolidin-1-yl)methyl)piperidine-1-carboxylate] | – | – | – | 262 | < 1000 nM | 129
